# In US20240358683A1, “COMPOSITION FOR PREVENTING OR TREATING NEURODEGENERATIVE DISEASE COMPRISING COMPOUND INDUCING EXPRESSION OF ANTI-AGING GENE KLOTHO” (KLOTHO SCIENCES, priority 2021, published 2024):
# Columns and labels:
# human klotho gene [1] = assay: Luciferase expression experiment, human klotho promoter reporter (1.7 kbp / 240 bp) in RPTEC cells; assay type: cell-based; details: 5 μM, 24 hours, compared among Comparative Examples 1 to 4, FIG. 1
# Protocol: (§1) In order to evaluate whether the klotho gene was expressed by the evaluation of luciferase activity, human renal proximal tubule epithelial cells (RPTECs) (ATCC CRL-4031), which are epithelial cells of the proximal tubule of the human kidneys, were purchased from Lonza, USA and used.
# (§2) For culturing, a Renal Epithelial Growth Medium (REGM™) Bullet kit, also manufactured by the same Lonza company, was used, and the cells were cultured under conditions of 37° C. and 5% CO2. As a plasmid for luciferase expression, a plasmid in which the promoter site of a human KL (klotho) gene was disposed to regulate the expression of a firefly luciferase gene was used.
# The plasmid was incorporated into cells using an X-treme GENE transfection reagent from Roche. The activity of luciferase expressed in cells was measured using a Dual-Luciferase reporter assay system manufactured by Promega. After the cultured cells were treated with each compound at an indicated concentration for 24 hours, the activity of luciferase was measured. It is indirectly shown that the expression of the klotho gene may be increased when the activity of luciferase is high. […]
# human klotho gene [2] = assay: Luciferase expression experiment, reporter gene pHKP-luc (promoter up to -2.1 kb upstream of the human klotho gene) in RPTECs; assay type: cell-based
# Protocol: as §1, §2
# The plasmid was incorporated into cells using an X-treme GENE transfection reagent from Roche. The activity of luciferase expressed in cells was measured using a Dual-Luciferase reporter assay system manufactured by Promega. After the cultured cells were treated with each compound at an indicated concentration for 24 hours, the activity of luciferase was measured. It is indirectly shown that the expression of the klotho gene may be increased when the activity of luciferase is high.
# The results of confirming the expression of a reporter gene by treating RPTECs, which are epithelial cells of the proximal tubule of the human kidneys, with Examples 1 to 6 at concentrations of 0.5, 1 and 5 μM and Comparative Example 1 at a concentration of 5 μM and using a reporter gene (pHKP-luc) including a promoter included up to −2.1 kb upstream of the human klotho gene are illustrated in FIGS. 2 and 3.
# klotho (KL) gene [3] = assay: Quantitative evaluation of klotho (KL) gene expression level using real-time PCR in RPTEC cells; assay type: cell-based, human; details: RPTEC cells treated for 6 hours; vs Comparative Example 1; FIG. 4
# Protocol: For RNA extraction from RPTEC cells, which are epithelial cells of the proximal tubule of the human kidneys, treated with the compounds of Comparative Example 1 and Examples 1 and 2 for 6 hours, an RNeasy kit from Qiagen Inc. was used. The results of preparing cDNA from extracted RNA using a Superscript II kit from Thermo Fisher Scientific, Inc. and performing the quantitative evaluation using Taqman Gene Expression assays from Applied Biosystems as a klotho (KL) gene-specific kit are illustrated in FIG. 4.
# 5×FAD mice [4] = assay: Novel object recognition test (NOR) in 5×FAD mice; assay type: in vivo; details: 10 mg/kg p.o. daily, compared to vehicle, FIG. 11
# Description: (§3) In this experiment, 5×FAD mice aged 4 months or 6 months were used. 5×FAD mice are Alzheimer's mice genetically modified to overproduce beta amyloid (Aβ, β amyloid) and were provided by the KIST Research Animal Resource Center, which maintains and sells them. Normal control (WT) mice, which are not genetically modified to overproduce β-amyloid (Aβ), were provided by the KIST Research Animal Resource Center. The animals were acclimatized for 1 week before the experiments. Mice were kept on an ad libitum diet in an animal room maintained at 22±2° C. and 40-60% humidity, and the light and dark cycles were controlled at 12-hour intervals. […]
# (§4) Animal model mice and normal control mice received vehicle (5% DMSO+65% PEG400+30% Saline) or vehicle with KS1 (Example 10) dissolved in it orally (p.o.) at a concentration of 10 mg/kg daily for 4 or 12 weeks. […] The body weight was measured weekly during the treatment period, and after the end of the treatment, the cognitive function was tested and sacrificed, and the organs were harvested to confirm the changes through biochemical methods.
# The novel object recognition test is a modification of the existing method and consists of an adaptation period, an exploration period, and a novel object recognition period. […] The next day, one of the objects was replaced with a new object and the animal's movement was measured for 10 minutes. […]
# NeuN = NeuN immunohistochemistry of brain tissue sections, 5×FAD cognitive dysfunction animal model; assay type: in vivo; details: 5×FAD mice, 10 mg/kg p.o. daily, FIG. 10
# Description: (§5) In this experiment, 5×FAD mice aged 4 months or 6 months were used. 5×FAD mice are Alzheimer's mice genetically modified to overproduce beta amyloid (Aβ, β amyloid) and were provided by the KIST Research Animal Resource Center, which maintains and sells them. Normal control (WT) mice, which are not genetically modified to overproduce β-amyloid (Aβ), were provided by the KIST Research Animal Resource Center. The animals were acclimatized for 1 week before the experiments. Mice were kept on an ad libitum diet in an animal room maintained at 22±2° C. and 40-60% humidity, and the light and dark cycles were controlled at 12-hour intervals. All animal experiments were performed in accordance with the animal care and use regulations of the Institutional Animal Care and Use Committee of the Korea Advanced Institute of Science and Technology (KIST).
# (§6) Animal model mice and normal control mice received vehicle (5% DMSO+65% PEG400+30% Saline) or vehicle with KS1 (Example 10) dissolved in it orally (p.o.) at a concentration of 10 mg/kg daily for 4 or 12 weeks. Three mice were used per experimental group. The body weight was measured weekly during the treatment period, and after the end of the treatment, the cognitive function was tested and sacrificed, and the organs were harvested to confirm the changes through biochemical methods.
# (§7) All data were expressed as mean (S.E.M), and differences between groups were determined using one-way ANOVA and Tukey's multiple comparisons test. When it was determined that there was a statistical difference, p<0.05 *, p<0.01 **, p<0.001 *** were indicated.
# (§8) The fluorescence level of NeuN measured in each region (CTX: neocortex, CA: amygdala, DG: dentate gyrus) of brain tissue sections isolated from control (CTL) and KS1 1-month and 3-month treatment groups of 5×FAD cognitive dysfunction animal model and normal control animal model was investigated by Immunohistochemistry.
# phospho-Tau = phospho-Tau immunohistochemistry of brain tissue sections, 5×FAD cognitive dysfunction animal model; assay type: in vivo; details: 5×FAD mice, 10 mg/kg p.o. daily, FIG. 9
# Description: as §5, §6, §7
# as §8, with “levels” for “level”, “phospho-Tau” for “NeuN”, “(HPC: hippocampus; CTX: neocortex)” for “(CTX: neocortex, CA: amygdala, DG: dentate gyrus)”, “were” for “was”
# klotho (KL) gene [5] = assay: Quantitative evaluation of klotho (KL) gene expression level using general PCR in RPTEC cells; assay type: cell-based, human; details: 2.5 μM, 6 hours, FIG. 5
# Protocol: After RPTEC cells, which are epithelial cells of the proximal tubule of the human kidneys, were each treated with the compounds of Examples 7 to 10 at 2.5 μM for 6 hours, RNA was extracted from the cells, and cDNA was prepared from the extracted RNA using a Superscript II kit from Thermo Fisher Scientific, Inc., and then general PCR was performed.
# Information on the primers used in the experiment is as follows. • KL-F […] (SEQ ID NO: 1) • KL-R […] (SEQ ID NO: 2) • GAPDH-F […] (SEQ ID NO: 3) • GAPDH-R […] (SEQ ID NO: 4)
# The DNA amplified by PCR was confirmed by staining with ethidium bromide after electrophoresis on an agarose gel, and the amounts of DNA in the band were quantitatively compared using the SPEedyQuant program, and are illustrated in FIG. 5.
# 5×FAD mice [6] = assay: Passive avoidance experiment in 5×FAD mice; assay type: in vivo; details: 10 mg/kg p.o. daily for 4 weeks, compared to normal mice, FIG. 12
# Description: as §3
# as §4, with “methods. […]” for “methods.”
# as §7
# HT22 cells [7] = assay: Neuronal inflammation inhibition, LPS-induced cytotoxicity (Cyto X cell viability assay); assay type: cell-based, mouse; details: 2.5 μM, LPS 1 μg/mL 24 hours, FIG. 8
# Protocol: (§9) HT22 cells, neuronal cells derived from mouse hippocampus, were cultured in DMEM culture medium supplemented with 10% FBS. Cell cultures were incubated in a 37° C. incubator at 5% CO2, and when the cells grew to saturate the surface of the culture dish by 80%, they were treated with 0.05% trypsin and transferred to new culture dishes for passage. The compound was added to the medium at each passage to maintain a final concentration of 2.5 μM. Cells with only DMSO as solvent were used as a negative control, and cells from three passages (#5) were used as a non-aging control. All senescent cells were cultured in 20 passages (#25).
# Cells were seeded at 10,000 cells in 160 μl of medium into each well of a 96-well plate and incubated in a 37° C. incubator at 5% CO^2 for 24 h. The compounds were added to the culture medium to a final concentration of 2.5 μM. After incubation, LPS (lipopolysaccharide) from Cell application was added at a concentration of 1 μg/mL and incubated for another 24 hours. The Cyto X cell viability assay kit from the same company was then added 20 μl to each well and incubated for 1 to 4 hours. The color change was then measured at 450 nm.
# [8] = test system: human kidney-2 (HK2) cells; assay: Toxicity test, EZ-Cytox kit; assay type: cell-based; details: 12.5 μM or 25 μM, 24 hours, FIG. 6
# Protocol: Cultured human kidney-2 (HK2) cells were treated with Comparative Example 1, Example 2 and Examples 9 to 10 at a concentration of 25 μM or 12.5 μM, and after 24 hours, cytotoxicity was measured using an EZ-Cytox kit.
# HT22 cells [9] = assay: Neuronal senescence inhibition, senescence β-galactosidase staining; assay type: cell-based, mouse; details: FIG. 7
# Protocol: as §9
# To check the degree of senescence of the cells, “Senescence β-galactosidase staining kit” from Cell Signaling Technology was used. The staining solution was added to the cells on the day of the experiment and the stained cells were checked 8 hours later. The number of stained cells was determined and expressed as a percentage of the total number of cells observed under a 200× microscope, and the number of stained cells in three different locations per sample was counted and averaged. As the expression of β-galactosidase enzyme increases as the aging of cells progresses, stained cells can be judged as more aged cells than unstained cells.
# [10] = RPTECs, Examples at 0.5, 1 and 5 μM vs Comparative Example 1 at 5 μM, FIG. 2
smiles,measurement,setting,value
"O=C(Nc1ccccc1Cl)c1c[nH]c2ccccc12 [Comparative Example 1, N-(2-chlorophenyl)-1H-indole-3-carboxamide]",luciferase activity,human klotho gene [1],the highest
"O=C(Nc1nc2ccccc2o1)c1ccc([N+](=O)[O-])cc1Cl [Example 1, N-(benzo[d]oxazol-2-yl)-2-chloro-4-nitrobenzamide]",expression of the reporter gene (pHKP-luc),human klotho gene [2]; [10],level similar to that of Comparative Example 1
Cc1ccc2oc(Nc3ccc(Cl)c(Cl)c3)nc2c1 [Example 2],"klotho (KL) gene mRNA expression level, real-time PCR",klotho (KL) gene [3],level similar to that of Comparative Example 1
same,expression of the reporter gene (pHKP-luc),"human klotho gene [2]; RPTEC cells, 5 μM, vs Comparative Example 1, FIG. 3",level similar to that of Comparative Example 1
same,expression of the reporter gene (pHKP-luc),human klotho gene [2]; [10],level similar to that of Comparative Example 1
"Fc1ccc(Nc2nc3ccccc3o2)cc1F [Example 10, N-(3,4-difluorophenyl)benzo[d]oxazol-2-amine]",object detection ability (NOR),5×FAD mice [4],statistically significant increase in object detection ability
same,expression of NeuN neuromarker protein,NeuN; compared to vehicle,increased to a statistically significant level
same,"NeuN, Cornu Ammonis (CA)",NeuN,an increase in NeuN was confirmed
same,"NeuN, dentate gyrus (DG)",NeuN,no significant increase
same,"NeuN, primary somatosensory cortex (CTX)",NeuN,no significant increase
same,"expression of phospho-Tau protein, hippocampus (HPC) region",phospho-Tau; 1-month and 3-month treatment,reduced expression of the proteins was seen in only the 3-month treated mice
same,"expression of phospho-Tau protein, primary somatosensory cortex (CTX) region",phospho-Tau; 1-month and 3-month treatment,reduced expression of the proteins was seen in both 1- and 3-month treated mice
same,expression of phospho-Tau protein,phospho-Tau; compared to vehicle,reduced to a statistically significant level
same,expression level of the klotho (KL) gene relative to Comparative Example 1,klotho (KL) gene [5],about 10 times
same,"spatial learning and memory performance, passive avoidance test",5×FAD mice [6],maintained a similar level of performance to normal mice
same,percentage of cells killed by LPS treatment,"HT22 cells [7]; HT22 cells cultured for 5 passages, DMSO control 50%",45%
same,percentage of cells killed by LPS treatment,"HT22 cells [7]; HT22 cells cultured for 20 passages, DMSO control about 80%",60%
same,cytotoxicity,[8],the least toxicity
same,improvement of toxicity compared to Comparative Example 1,[8],≥ 20%
same,β-galactosidase stained cells as a percentage of the total number of cells,"HT22 cells [9]; HT22 cells cultured for 20 passages, 2.5 μM in the medium, DMSO control about 50%",40%
same,decrease in the degree of senescence compared to cells grown in medium containing DMSO,"HT22 cells [9]; HT22 cells, 20 passages, 2.5 μM",20%
